# Assay results published in patent US20230338322A1, “GLYCERYLTRIACETATE (GTA) FOR USE IN IMPROVING BREATHING” (YISSUM RESEARCH DEVELOPMENT COMPANY OF THE HEBREW …, priority 2020, published 2023).
# Key:
# [1] = Treating Long-COVID (post-corona) patients with GTA capsules; assay type: in vivo, human; conditions: softgel GTA 12 ml daily oral
# Text: Long COVID is a range of symptoms that can last weeks or months after first being infected with the virus that causes COVID-19 or can appear weeks after infection. 5 Long-Covid subjects who recovered from COVID-19 infection (=became PCR negative) but still have significant breathing problems that compromised their daily physical activities. […] Treatment duration was between 5-10 days, according to recovery rate.
# [2] = Madhavarao 2009, Segel 2011; cited from earlier work
# [3] = aqueous solution; cited from earlier work
# swine flu infection = conditions: human, in vivo, po
# [4] = Treating a bronchitis patient with GTA capsules; conditions: softgel GTA 12 ml daily for a total of 5 days
# [5] = system: SARS-Cov2 (COVID-19 infection); assay: Treating SARS-Cov2 infected patients (COVID-19 infection); assay type: in vivo, human; conditions: all 11 patients, age 60-89, PCR positive with respiratory symptoms; softgel GTA 12 ml daily oral, 5-10 days, no other medication
# Text: Eleven subjects, age 60-89 with various comorbidities, who were positive for COVID-19 infection by the PCR test and already developed respiratory-related symptoms of the disease. […] Treatment duration was between 5-10 days, according to recovery rate.
# tumor-model = conditions: GTA alone versus combination with chemotherapy (TMZ); WO13013061; cited from earlier work
# [6] = Treating lung cancer patient with breathing difficulties
# Experimental: The patient started taking pure glyceryl-triacetate (GTA), encapsulated in hard-shell Vegicaps (produced by Capsugel), 12 ml a day, divided among 3 meals. After 3 days the patient increased the dose to 24 ml a day and after additional 3 days they consumed a daily dose of 30 ml GTA for a period of 1 month.
# [7] = Treating asthmatic patients with GTA capsules
# Experimental: These patients where orally administered softgel capsules filled with GTA at a daily dose of 12 ml, either 4 ml three times a day or 6 ml twice a day, during or immediately after meal. Treatment duration was 7 days.
structure (smiles),measurement,setting,value
"CC(=O)OCC(COC(C)=O)OC(C)=O [GTA, Glyceryltriacetate]",time to recovery from breathing problems,[1]; 5 Long-Covid patients,5 to 10 days
same,recovery from breathing problems,"[1]; all 5 Long-Covid patients, no other medication",fully or almost fully recovered
same,therapeutic benefit in Canavan disease clinical trials,[2],failed to show any therapeutic benefit
same,water solubility limit,[3],0.25%
same,patient's healing compared to non-treated patients,swine flu infection,acceleration of patient's healing
same,patient-reported coughing and breathing,[4],"less to no coughing, improved breathing"
same,recovery from the disease,[5],fully recovered
same,improvement in in-vivo tumor-model,tumor-model,not by GTA by itself
same,tumor mass on CT,[6]; GTA up to 30 ml daily for 1 month,no improvement in tumor mass
same,self-reported breathing,[6]; within 2 days after start of GTA 12 ml a day,breathing is much easier
same,use of inhaled Salbutamol,"[6]; within a week, GTA 12 ml then 24 ml a day",stopped taking Salbutamol
same,walking distance without taking a break,"[6]; within a week, before treatment not more than ~50 m",hundreds of meters
same,duration of the beneficial effect,"[7]; after 7 days of GTA 12 ml daily, then 2nd round required",1-8 weeks
same,patient-reported breathing,"[7]; all 4 chronic asthmatic patients, softgel GTA 12 ml daily oral, 7 days, including giving up inhalation",outstanding improvement
